The target of one assay is T1, human TLR8 (Homo sapiens, UniProt Q9NR97).
T1 construct: host or cells: HEK-Blue cells
T1 sequence (Q9NR97 27-1041): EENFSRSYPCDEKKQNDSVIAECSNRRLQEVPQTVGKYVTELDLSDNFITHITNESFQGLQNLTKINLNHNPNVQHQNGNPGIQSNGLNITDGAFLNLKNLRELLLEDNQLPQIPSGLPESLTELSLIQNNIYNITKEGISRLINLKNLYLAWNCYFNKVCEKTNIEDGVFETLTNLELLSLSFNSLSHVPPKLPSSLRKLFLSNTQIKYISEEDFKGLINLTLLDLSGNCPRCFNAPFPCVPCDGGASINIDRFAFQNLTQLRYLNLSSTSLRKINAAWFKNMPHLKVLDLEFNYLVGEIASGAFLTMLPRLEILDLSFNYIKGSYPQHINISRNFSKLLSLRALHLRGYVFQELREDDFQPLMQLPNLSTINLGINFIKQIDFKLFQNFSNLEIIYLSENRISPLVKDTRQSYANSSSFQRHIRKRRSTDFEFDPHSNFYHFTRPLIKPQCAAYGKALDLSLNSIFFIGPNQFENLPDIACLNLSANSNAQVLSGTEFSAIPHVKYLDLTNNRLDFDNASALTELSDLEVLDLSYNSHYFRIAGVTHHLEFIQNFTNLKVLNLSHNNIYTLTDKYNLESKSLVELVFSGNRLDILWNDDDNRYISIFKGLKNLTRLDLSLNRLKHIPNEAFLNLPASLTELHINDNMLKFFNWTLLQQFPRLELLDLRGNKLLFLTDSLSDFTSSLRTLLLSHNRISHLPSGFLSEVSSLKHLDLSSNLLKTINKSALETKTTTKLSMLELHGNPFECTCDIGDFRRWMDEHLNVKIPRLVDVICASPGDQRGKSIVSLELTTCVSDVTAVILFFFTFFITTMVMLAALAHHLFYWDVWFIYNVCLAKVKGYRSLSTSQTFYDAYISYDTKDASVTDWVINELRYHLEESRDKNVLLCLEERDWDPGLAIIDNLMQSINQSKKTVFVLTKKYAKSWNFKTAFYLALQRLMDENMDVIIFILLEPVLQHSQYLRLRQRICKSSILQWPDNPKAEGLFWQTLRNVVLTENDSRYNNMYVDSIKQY
As to the kind of experiment: TLR8 inhibition reporter assay (HEK-Blue cells, SEAP reporter, R848 stimulation). The format is cell-based. The following applies: HEK-Blue cells overexpressing human TLR8, R848 15.9 μM. The procedure, abridged:
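In this cell reporter format, test compounds at 0.05 nM-50 μM final incubate 22 h with seeded cells (TLR7 15000, TLR8 20,000 per well). SEAP read-out by HEK-Blue Detection medium yields % inhibition relative to agonist/DMSO and known-inhibitor wells.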

The next assay deals with T2, human TLR9 (Homo sapiens, UniProt Q9NR96).
T2 construct: host or cells: HEK-Blue cells
T2 sequence (Q9NR96 26-1032): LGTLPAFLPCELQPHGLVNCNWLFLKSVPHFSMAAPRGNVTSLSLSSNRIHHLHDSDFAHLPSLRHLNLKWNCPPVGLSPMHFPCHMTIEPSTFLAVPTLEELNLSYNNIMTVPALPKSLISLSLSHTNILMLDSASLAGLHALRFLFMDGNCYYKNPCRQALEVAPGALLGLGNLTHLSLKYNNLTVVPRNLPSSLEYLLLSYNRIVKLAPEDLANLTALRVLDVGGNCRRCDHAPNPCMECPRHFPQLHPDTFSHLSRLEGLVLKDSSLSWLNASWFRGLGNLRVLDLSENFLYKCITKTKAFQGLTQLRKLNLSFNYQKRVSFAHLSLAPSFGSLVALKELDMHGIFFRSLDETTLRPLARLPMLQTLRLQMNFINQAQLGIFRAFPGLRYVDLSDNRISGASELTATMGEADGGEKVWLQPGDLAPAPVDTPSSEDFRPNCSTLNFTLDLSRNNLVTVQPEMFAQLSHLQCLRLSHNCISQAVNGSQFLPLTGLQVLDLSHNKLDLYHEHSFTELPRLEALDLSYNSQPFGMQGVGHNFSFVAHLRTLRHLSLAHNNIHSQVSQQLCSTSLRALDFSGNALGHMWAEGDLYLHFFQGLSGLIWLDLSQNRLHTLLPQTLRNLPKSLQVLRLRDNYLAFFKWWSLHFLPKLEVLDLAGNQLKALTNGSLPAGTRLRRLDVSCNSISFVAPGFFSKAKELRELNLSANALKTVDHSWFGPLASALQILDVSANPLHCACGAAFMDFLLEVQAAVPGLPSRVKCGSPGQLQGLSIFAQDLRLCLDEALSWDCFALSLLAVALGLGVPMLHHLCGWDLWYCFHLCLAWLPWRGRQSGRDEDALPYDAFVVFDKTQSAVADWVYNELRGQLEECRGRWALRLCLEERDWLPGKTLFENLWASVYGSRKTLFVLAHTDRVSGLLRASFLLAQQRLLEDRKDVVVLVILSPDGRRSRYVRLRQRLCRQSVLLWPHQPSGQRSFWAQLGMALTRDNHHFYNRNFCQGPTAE
As to the kind of experiment: TLR9 inhibition reporter assay (HEK-Blue cells, SEAP reporter, ODN2006 stimulation). The format is cell-based. To be noted: HEK-Blue cells overexpressing human TLR9, ODN2006 5 nM. The procedure, abridged: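 Dose–response from 0.05 nM to 50 μM was run in HEK-Blue human TLR7, TLR8 and TLR9 reporter cells. After 30 min at room temperature with compound, ligand was added (TLR7 gardiquimod 7.5 μM; TLR8 R848 15.9 μM; TLR9 ODN2006 5 nM) and SEAP measured next day, at 22 h.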

Take `CCN(CC)C(=O)C1CCCN(CC(=O)N2CCC(c3ccc4[nH]c(-c5ccc(OC)c(OC)c5)c(CC(F)(F)F)c4c3)CC2)C1` (stereo not shown) [Example 420, 1-(2-(4-(2-(3,4-dimethoxyphenyl)-3-(2,2,2-trifluoroethyl)-1H-indol-5-yl)piperidin-1-yl)-2-oxoethyl)-N,N-diethylpiperidine-3-carboxamide]: the figures for the IC50 at human TLR8 and on human TLR9 were 25 nM and 279 nM, respectively.
For `CCN(CC)C(=O)C1CCCN(CC(=O)N2CCC(c3ccc4[nH]c(-c5ccc(OC)c(OC)c5)c(CC(F)(F)F)c4c3)CC2)C1` (stereo not shown) [Example 421, 1-(2-(4-(2-(3,4-dimethoxyphenyl)-3-(2,2,2-trifluoroethyl)-1H-indol-5-yl)piperidin-1-yl)-2-oxoethyl)-N,N-diethylpiperidine-3-carboxamide] the same measures were 71 nM and 2280 nM.

The record behind these values is patent publication US11180474B2 (BRISTOL-MYERS SQUIBB COMPANY, priority 2016, dated 2021).
